Holding throughout (assay): inhibition of tumour cell growth, NCI panel, 48 h
In assay [1] the test system is DLD-1.
Assay [2] relates to DMS-114.
Assay [3] concerns DMS-273.
Assay [4] concerns KM-20L2.
Assay [5] deals with RXF 631.
The test system of assay [6] is HOP-18.
For assay [7], the system named is XF498.
Assay [8] has as its system BT-549.
Assay [9] deals with LXFL 529.

The structures appear in SMILES notation.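 Five concentrations, 48 hours, 96-well plates. At the GI50, growth is halved.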 The source made the active and inactive calls. Rule as the data show it: active = GI50 up to about 1.1 µM and inactive = higher. Some results are limits rather than exact numbers.

For the compound `COC(=O)CC(=O)OSc1ccccc1`, the GI50 in assay [1] was 17.2 µM (inactive); in [2], 11.6 µM (inactive); in assay [3], 22.7 µM (inactive); in assay [4], 20 µM (inactive); in assay [5], 11.4 µM (inactive).

As for `COC(=O)C(C/C=C(\C)c1ccccc1)C(C)=O` (configuration not stated), the GI50 in [1] is 89.5 µM (inactive); in [2] it was 34.9 µM (inactive); in [3] it was > 83.9 µM (inactive); in [6], > 100 µM (inactive); in [4], > 100 µM (inactive); in assay [7], > 80.9 µM (inactive).

Take `Nc1ccc(-c2nc3ccccc3s2)cc1`: the GI50 in assay [8] was 14.9 µM (inactive); in assay [1], 26.4 µM (inactive); in assay [2] it was 17.7 µM (inactive); in [6] it was 86.9 µM (inactive); in assay [4], 37.8 µM (inactive); in assay [9], 17.5 µM (inactive). In addition, in assay [5], the GI50 is 19.7 µM (inactive).

For `CCOc1ccccc1NC(=O)CCc1nnc(S)[nH]1`, the GI50 was > 100 µM (inactive) in [1]; 59.7 µM (inactive) in [2]; > 100 µM (inactive) in [6]; > 100 µM (inactive) in assay [9]; > 100 µM (inactive) in [5].

As to `CC(=O)Nc1ccc(/C=C(\NC(=O)c2ccccc2)C(=O)NNS(=O)(=O)c2ccc(C)cc2)cc1`, the GI50 is 33 µM (inactive) in assay [1]; 18.2 µM (inactive) in assay [3]; > 100 µM (inactive) in assay [6]; > 100 µM (inactive) in assay [4]; > 100 µM (inactive) in assay [9]; > 100 µM (inactive) in assay [7].

In the case of `Cc1cc(O)c(C(=O)CC2(O)C(=O)Nc3c(Cl)cc(Cl)cc32)c(=O)o1` (configuration not stated), the GI50 was > 100 µM (inactive) in assay [1]; 41.7 µM (inactive) in assay [3]; > 100 µM (inactive) in [6]; > 100 µM (inactive) in [4]; > 100 µM (inactive) in [9]; > 100 µM (inactive) in [5]. For the same compound, the GI50 in assay [7] was > 100 µM (inactive).

With `Cn1c(=O)oc2cc(C3CCC(=O)N3Cc3ccc(Cl)cc3)ccc21` (configuration not stated), the GI50 in [1] is 92 µM (inactive); in [2] it was > 100 µM (inactive); in [3] it was > 100 µM (inactive); in [6], > 100 µM (inactive); in [4], > 100 µM (inactive); in [9], > 100 µM (inactive). Besides, the GI50 in assay [7] was > 100 µM (inactive).

On to `NS(=O)(=O)c1ccc(NC(=O)C2C(=O)C(=O)N(c3ccc(S(N)(=O)=O)cc3)C2=O)cc1` (configuration not stated), for which the GI50 in assay [1], in assay [2], in [3], in assay [6], in [4] and in assay [9] was > 100 µM (inactive) throughout. Besides, in assay [5], the GI50 was > 100 µM (inactive).

On to `COC1=C2CC(C)CC(OC)C(O)C(C)/C=C(\C)C(OC(N)=O)C(OC)/C=C\C=C(/C)C(=O)NC(=C(/C=N/N3CCCCC3)C1=O)C2=O` (configuration not stated), for which the GI50 is 8.47 µM (inactive) in [1]; 13.6 µM (inactive) in assay [3]; 11.9 µM (inactive) in assay [6]; 5 µM (inactive) in [4]; 10 µM (inactive) in assay [9]; 8.28 µM (inactive) in assay [5]. The GI50 in [7] was 8.95 µM (inactive).

For the compound `O=C(c1ccco1)c1ccccc1C(=O)c1ccco1`, the GI50 in assay [1] was > 100 µM (inactive); in assay [2], > 100 µM (inactive); in assay [3] it was > 100 µM (inactive); in assay [6] it was 61.5 µM (inactive); in assay [4] it was > 100 µM (inactive); in assay [9], > 100 µM (inactive). Further, the GI50 in assay [5] and in [7] was > 100 µM (inactive) in each case.

On to `Cc1cc(Cl)ccc1NC(=O)CCCC(=O)C1CCCC1=O` (configuration not stated), for which the GI50 in assay [1], in [2], in [3], in assay [6], in assay [4] and in [9] was > 100 µM (inactive) throughout. In addition, in assay [7], the GI50 is > 100 µM (inactive).

Regarding `CC(C)(C)c1nc2c(o1)/C(=N\c1ccc(F)cc1)c1ccccc1C2=O`, the GI50 in [8] was 3.45 µM (inactive); in [1], 4.11 µM (inactive); in assay [2], 0.902 µM (active); in assay [3] it was 1.73 µM (inactive); in [6], 15.2 µM (inactive); in assay [4], 17.1 µM (inactive). For the same compound, the GI50 was 4.4 µM (inactive) in assay [9] and 1.71 µM (inactive) in assay [7].

In the case of `O=C(Nc1cccc(O)c1)C(=O)C1C(=O)NC(=S)NC1=O`, the GI50 in assay [1], in [2], in [3], in assay [6], in assay [4] and in assay [9] was > 100 µM (inactive) in each case. For the same compound, in assay [7], the GI50 was > 100 µM (inactive).

Turning to `CC(=O)c1ccc(OCC(O)CO)cc1` (configuration not stated), the GI50 in assay [1] was 45.8 µM (inactive); in assay [2] it was 47 µM (inactive); in assay [3], > 100 µM (inactive); in [6], > 100 µM (inactive); in assay [4] it was > 100 µM (inactive); in assay [9], 51.8 µM (inactive). Moreover, the GI50 in assay [5] is > 100 µM (inactive).

For `CCOC(=O)[N-]c1ccc(S(=O)(=O)[O+](C)CCl)cc1.CCOC(=O)[N-]c1ccc(S(=O)(=O)[O+](C)CCl)cc1.NC(=O)N=O.NC(=O)OCCCl`, the GI50 in assay [2], in [6], in assay [4], in [9], in assay [5] and in assay [7] was > 100 µM (inactive) in each case.

For the compound `O=c1c2cc([N+](=O)[O-])ccc2sc2ccsc12`, the GI50 was > 100 µM (inactive) in [1]; > 100 µM (inactive) in assay [2]; > 100 µM (inactive) in assay [6]; > 100 µM (inactive) in assay [4]; 69.3 µM (inactive) in assay [9]; > 100 µM (inactive) in [5]. In addition, the GI50 in assay [7] was > 100 µM (inactive).

Turning to `Nc1ccc(N)c2c1C(=O)c1ccccc1C2=O`, the GI50 in assay [1] is 5.83 µM (inactive); in assay [2], 32.7 µM (inactive); in [3], 16 µM (inactive); in assay [6] it was 22 µM (inactive); in [4], 14.4 µM (inactive); in assay [9] it was 31.1 µM (inactive). Further, the GI50 in assay [5] is 20.4 µM (inactive); in assay [7] it was > 100 µM (inactive).

For the compound `COC(=O)C(CC(=O)c1cc2c(cc1I)OCO2)Cc1cc(OC)c(OC)c(OC)c1I` (configuration not stated), the GI50 in assay [1] is > 100 µM (inactive); in assay [2], 22.8 µM (inactive); in [3], > 100 µM (inactive); in assay [6] it was > 100 µM (inactive); in assay [4], > 100 µM (inactive); in [9], 12.2 µM (inactive). In addition, in assay [7], the GI50 is > 100 µM (inactive).

Consider `O=C(c1ccccc1O)c1cc(-c2ncc3c(=O)c4ccccc4oc3n2)c(-c2ccccc2O)[nH]c1=O`, for which the GI50 was 24.4 µM (inactive) in assay [1]; 28.8 µM (inactive) in assay [2]; 26.8 µM (inactive) in assay [3]; 33.3 µM (inactive) in assay [6]; 29.9 µM (inactive) in assay [7].

(Values after ChEMBL document CHEMBL1201862, “PubChem BioAssay data set” (2004).)
